Experimental data: US5500217A, “Personal care formulations” (priority 1991, dated 1996)
Counter-ions that a name gives are not always drawn.

Tests used:
Candida albicans = test: Anti-microbial challenge test in oil in water emulsion (base cream), Candida albicans; type: cell-based, Candida albicans (ATCC 10231); conditions: viable count < 10^2 cells cm^-3; for MLC, CA, 7d: 7 days
Procedure: (§1) Further aspects of the present invention are described in the following illustrative examples. Unless otherwise stated all refer to parts by weight. Also, personal care formulations in accordance with the present invention were subjected to evaluation of the antimicrobial properties of the composition. The anti-microbial evaluation was effected, under aseptic conditions throughout, in the following manner.
(§2) In the anti-microbial evaluation, the formulations were tested for anti-microbial activity against bacteria and/or fungi. The bacteria used were either Pseudomonas aeruginosa or Staphylococcusaureus. The fungus used was Candida albicans.
(§3) To aliquots (20 parts) of the emulsion were added various anti-microbial agents at concentrations of 500, 125, 31.25 and 7.8 ppm of active ingredients.
(§4) One sample of each mixture was inoculated with 0.2 parts by volume of a 24 hour culture of Staphylococcus aureus (ATCC 6538) containing 10^8 cells cm^-3. Duplicate samples of each mixture were inoculated with 0.2 parts by volume of a 48 hour culture of Candida albicans (ATCC 10231) containing 10^8 cells cm^-3.
(§5) The samples were then incubated and samples removed after 24 hours, 48 hours and 7 days as described in Examples 1 and 2 with the exception that the samples were not subjected to a further challenge after seven days.

Staphylococcus aureus = test: Anti-microbial challenge test in oil in water emulsion (base cream), Staphylococcus aureus; type: cell-based, Staphylococcus aureus (ATCC 6538); conditions: viable count < 10^2 cells cm^-3; for MLC, SA, 7d: 7 days
Procedure: as §1, §2, §3, §4, §5

Pseudomonas aeruginosa [1] = test: Challenge test in shampoo, number of surviving (viable) bacteria; type: cell-based, Pseudomonas aeruginosa (ATCC 19429)
Procedure: as §1, §2
Aliquots (4 parts) of the above shampoo were then prepared with concentrations of the biocides indicated in Table 3 at 500 and 125 ppm of active ingredient.
The above samples were then challenged with a 0.2 parts by volume inoculum of a 24 hour culture of Pseudomonas aeruginosa (ATCC 19429) containing approximately 1×10^8 colony forming units (cfu's) per milliliter. The samples were then incubated in the dark at 25° C., 1 milliliter samples taken after 24 hours, 48 hours and 7 days and the number of surviving bacteria determined.
The procedure of Examples 4-14 were repeated using the 1:1 silver complex of N-methyl-N-hydroxythiobenzamide at four different concentrations.

Pseudomonas aeruginosa [2] = test: Anti-microbial challenge test in protein-containing shampoo (MLC, two challenges); type: cell-based, Pseudomonas aeruginosa (ATCC 19429); conditions: viable count < 10^2 cells cm^-3; for MLC, Challenge 1, 48h / MLC, Challenge 1, 7d: first challenge; for MLC, Challenge 1, 7d / MLC, Challenge 2, 7d: 7 days
Procedure: as §1, §2
To aliquots (20 parts) of the shampoo formulation prepared as described were added various anti-microbial agents at concentrations of 125, 62.5, 31.25, 7.8 and 1.56 ppm of active ingredient, not all of the anti-microbial agents being used at all of these levels. The anti-microbial agents, and the levels used are as set out in Table One.
One sample of a mixture of the shampoo formulation and the anti-microbial agent was stored for one month (4 weeks) at 40° C. and a duplicate sample of the mixture was stored for one month at ambient temperature (about 20° C.).
The variants thus obtained were then challenged with a 0.2 parts by volume inoculum of a 24 hour culture of Pseudomonas aeruginosa (ATCC 19429) containing approximately 1×10^8 colony forming units (cfu's) per cm^3. The variants were than incubated in the dark at 25° C., and samples (one cm^3) were taken after 24 hours, 48 hours and 7 days. The number of surviving bacteria was determined by the decimal dilution method and the viable cells enumerated by incubation of the survivor detection plates at 30° C. for three days.
The results are shown in Table One in which the concentration of anti-microbial agent is the minimum required to reduce the count of viable cells to less than 10^2 cells cm^-3.
After removing the seven day sample, the samples of the shampoo formulation were challenged with a further 0.2 parts of a similar Pseudomonas aeruginosa culture and incubation at 25° C. was continued. Further one cm^3 samples were removed after 24 hours, 48 hours and 7 days and the number of surviving bacteria was determined in the same manner.

[3] = (S): shampoo stored one month at 40° C.
[4] = (S): shampoo stored one month at 40° C., second challenge
[5] = shampoo stored one month at ambient temperature
[6] = shampoo stored one month at ambient temperature, second challenge

## On1ccccc1=S [SP, sodium salt of 1hydroxy-2-pyridinethione]
Candida albicans
  MLC, CA, 24h: 500 ppm w/v
  MLC, CA, 48h: 500 ppm w/v
  MLC, CA, 7d: 31.25 ppm w/v
Staphylococcus aureus
  MLC, SA, 24h: > 500 ppm w/v
  MLC, SA, 48h: 500 ppm w/v
  MLC, SA, 7d: 125 ppm w/v

## Cc1csc(=S)n1[O-].Cc1csc(=S)n1[O-].[O]=[V+2] [Example 12]
Pseudomonas aeruginosa [1]; Table 3, 125 ppm
  Viable bacteria after 24 hr: 1.5 E4
  Viable bacteria after 48 hr: > 3.0 E4
  Viable bacteria after 7 days: 8.3 E5
Pseudomonas aeruginosa [1]; Table 3, 500 ppm
  Viable bacteria after 24 hr: 1.3 E3
  Viable bacteria after 48 hr: < 10
  Viable bacteria after 7 days: < 10

## Cc1csc(=S)n1O.Cc1csc(=S)n1O.[Zn] [ZTA, 2:1 complex of 3hydroxy-4-methyl-thiazol-2(3H) thione and zinc]
Pseudomonas aeruginosa [1]; Table 3, 125 ppm
  Viable bacteria after 24 hr: 6.2 E3
  Viable bacteria after 48 hr: < 10
  Viable bacteria after 7 days: < 10
Pseudomonas aeruginosa [1]; Table 3, 500 ppm
  Viable bacteria after 24 hr: 7.6 E3
  Viable bacteria after 48 hr: < 10
  Viable bacteria after 7 days: < 10
Pseudomonas aeruginosa [2]; [3]
  MLC, Challenge 1, 48h: 62.5 ppm w/v
  MLC, Challenge 1, 7d: 62.5 ppm w/v
Pseudomonas aeruginosa [2]; [4]
  MLC, Challenge 2, 48h: 62.5 ppm w/v
  MLC, Challenge 2, 7d: 62.5 ppm w/v
Pseudomonas aeruginosa [2]; [5]
  MLC, Challenge 1, 48h: 7.8 ppm w/v
  MLC, Challenge 1, 7d: 7.8 ppm w/v
Pseudomonas aeruginosa [2]; shampoo stored one month at ambient temperature, second challenge, 24 h
  MLC, Challenge 2, 24h: 31.25 ppm w/v
Pseudomonas aeruginosa [2]; [6]
  MLC, Challenge 2, 48h: 31.25 ppm w/v
  MLC, Challenge 2, 7d: 31.25 ppm w/v
Candida albicans
  MLC, CA, 24h: 31.25 ppm w/v
  MLC, CA, 48h: 31.25 ppm w/v
  MLC, CA, 7d: 31.25 ppm w/v
Staphylococcus aureus
  MLC, SA, 24h: 500 ppm w/v
  MLC, SA, 48h: 31.25 ppm w/v
  MLC, SA, 7d: 7.8 ppm w/v

## CN(O)C(=S)c1ccccc1.[Ag] [Example 15, 1:1 silver complex of N-methyl-N-hydroxythiobenzamide]
Pseudomonas aeruginosa [1]; Table 4, 7.13 ppm
  Viable bacteria after 24 hrs: < 10
  Viable bacteria after 48 hrs: < 10
  Viable bacteria after 7 days: < 10
Pseudomonas aeruginosa [1]; Table 4, 31.25 ppm
  Viable bacteria after 24 hrs: < 10
  Viable bacteria after 48 hrs: < 10
  Viable bacteria after 7 days: < 10
Pseudomonas aeruginosa [1]; Table 4, 125 ppm
  Viable bacteria after 24 hrs: < 10
  Viable bacteria after 48 hrs: < 10
  Viable bacteria after 7 days: < 10
Pseudomonas aeruginosa [1]; Table 4, 500 ppm
  Viable bacteria after 24 hrs: < 10
  Viable bacteria after 48 hrs: < 10
  Viable bacteria after 7 days: < 10

## Cc1csc(=S)n1[O-].Cc1csc(=S)n1[O-].Cc1csc(=S)n1[O-].[Sc+3] [Example 9]
Pseudomonas aeruginosa [1]; Table 3, 125 ppm
  Viable bacteria after 24 hr: 2.6 E3
  Viable bacteria after 48 hr: 8.0
  Viable bacteria after 7 days: < 10
Pseudomonas aeruginosa [1]; Table 3, 500 ppm
  Viable bacteria after 24 hr: 2.0 E3
  Viable bacteria after 48 hr: 1.7 E2
  Viable bacteria after 7 days: < 10

## Cc1csc(=S)n1[O-].Cc1csc(=S)n1[O-].[Mn+2] [Example 7]
Pseudomonas aeruginosa [1]; Table 3, 125 ppm
  Viable bacteria after 24 hr: 2.4 E4
  Viable bacteria after 48 hr: > 3.0 E4
  Viable bacteria after 7 days: > 3.0 E4
Pseudomonas aeruginosa [1]; Table 3, 500 ppm
  Viable bacteria after 24 hr: 3.5 E4
  Viable bacteria after 48 hr: > 3.0 E4
  Viable bacteria after 7 days: > 3.0 E4

## Cc1csc(=S)n1[O-].Cc1csc(=S)n1[O-].[Co+2] [Example 13]
Pseudomonas aeruginosa [1]; Table 3, 125 ppm
  Viable bacteria after 24 hr: 2.1 E3
  Viable bacteria after 48 hr: < 10
  Viable bacteria after 7 days: < 10
Pseudomonas aeruginosa [1]; Table 3, 500 ppm
  Viable bacteria after 24 hr: 5.2 E2
  Viable bacteria after 48 hr: < 10
  Viable bacteria after 7 days: < 10

## Cc1csc(=S)n1[O-].Cc1csc(=S)n1[O-].Cc1csc(=S)n1[O-].[In+3] [Example 11]
Pseudomonas aeruginosa [1]; Table 3, 125 ppm
  Viable bacteria after 24 hr: 9.1 E2
  Viable bacteria after 48 hr: < 10
  Viable bacteria after 7 days: < 10
Pseudomonas aeruginosa [1]; Table 3, 500 ppm
  Viable bacteria after 24 hr: < 10
  Viable bacteria after 48 hr: < 10
  Viable bacteria after 7 days: < 10

## Cc1csc(=S)n1O [Example 4, 3hydroxy-4-methylthiazol-2(3H)-thione]
Pseudomonas aeruginosa [1]; Table 3, 125 ppm
  Viable bacteria after 24 hr: 1.7 E4
  Viable bacteria after 48 hr: > 3.0 E4
  Viable bacteria after 7 days: > 3.0 E4
Pseudomonas aeruginosa [1]; Table 3, 500 ppm
  Viable bacteria after 24 hr: 1.2 E4
  Viable bacteria after 48 hr: > 3.0 E4
  Viable bacteria after 7 days: > 3.0 E4

## Cc1csc(=S)n1[O-].Cc1csc(=S)n1[O-].Cc1csc(=S)n1[O-].[Y+3] [Example 6]
Pseudomonas aeruginosa [1]; Table 3, 125 ppm
  Viable bacteria after 24 hr: 4.5 E4
  Viable bacteria after 48 hr: > 1.0 E4
  Viable bacteria after 7 days: < 3.0 E4
Pseudomonas aeruginosa [1]; Table 3, 500 ppm
  Viable bacteria after 24 hr: 1.4 E4
  Viable bacteria after 48 hr: > 3.0 E4
  Viable bacteria after 7 days: < 3.0 E4

## Cc1csc(=S)n1[O-].Cc1csc(=S)n1[O-].Cc1csc(=S)n1[O-].[Co+3] [Example 8]
Pseudomonas aeruginosa [1]; Table 3, 125 ppm
  Viable bacteria after 24 hr: 2.1 E3
  Viable bacteria after 48 hr: < 10
  Viable bacteria after 7 days: < 10
Pseudomonas aeruginosa [1]; Table 3, 500 ppm
  Viable bacteria after 24 hr: 1.2 E3
  Viable bacteria after 48 hr: < 10
  Viable bacteria after 7 days: < 10

## [O-]n1ccccc1=S.[O-]n1ccccc1=S.[Zn+2] [ZP, 1:2 complex of zinc with 1hydroxy-2-pyridinethione]
Candida albicans
  MLC, CA, 24h: 500 ppm w/v
  MLC, CA, 48h: 500 ppm w/v
  MLC, CA, 7d: 31.25 ppm w/v
Staphylococcus aureus
  MLC, SA, 24h: > 500 ppm w/v
  MLC, SA, 48h: > 500 ppm w/v
  MLC, SA, 7d: 500 ppm w/v

## Cc1csc(=S)n1[O-].Cc1csc(=S)n1[O-].[Zn+2] [Example 14]
Pseudomonas aeruginosa [1]; Table 3, 125 ppm
  Viable bacteria after 24 hr: 3.3 E3
  Viable bacteria after 48 hr: < 10
  Viable bacteria after 7 days: < 10
Pseudomonas aeruginosa [1]; Table 3, 500 ppm
  Viable bacteria after 24 hr: 4.4 E3
  Viable bacteria after 48 hr: < 10
  Viable bacteria after 7 days: < 10
